According to patent publication US7091229B2, “Tricyclic lactam and sultam derivatives and their use as histone deacetylase inhibitors” (Hoffman-La Roche Inc., priority 2001, dated 2006):

Tested on: HDAC
Assay: HDAC inhibition assay using an aminocoumarin derivative of an omega-acetylated lysine as substrate
Assay type: biochemical
Settings: compound concentration 10 nM
Protocol: To determine the HDAC inhibitory properties of the compounds of the invention an assay was performed using an aminocoumarin derivative of an omega-acetylated lysine as substrate for the enzyme. This assay has been described in detail in the literature (Nucleic Acid Research 1999, 27, 2057–2058. Using the protocol described therein, the inhibitory effect of representative compounds was determined at a concentration of 10 nM. The observed inhibition rates for selected compounds are shown in Table 1: […]

Compound | Inhibitory effect at 10 nM in %
O=C(CCCCCCCN1c2cccc3cccc(c23)S1(=O)=O)NO [Example 1, 8-(1,1-dioxo-2H-naphtho[1,8-cd]isothiazol-2-yl)-octanoic acid hydroxyamide] | 64%
O=C(CCCCCCN1c2cccc3cccc(c23)S1(=O)=O)NO [Example 2, 7-(1,1-dioxo-2H-naphtho[1,8-cd]isothiazol-2-yl)-heptanoic acid hydroxyamide] | 90%
O=C(CCCCCCCN1C(=O)c2cccc3cccc1c23)NO [Example 3, 8-(2-oxo-2H-benzo[cd]indol-1-yl)-octanoic acid hydroxyamide] | 82%
